Laboratory results as given in PMC10714399, “Open Source Antibiotics: Simple Diarylimidazoles Are Potent against Methicillin-Resistant Staphylococcus aureus” (ACS Infectious Diseases, 2023).
≈ marks a conversion by molar mass, not a printed value. Read-outs that look alike come from different tables or passages of the source.

What was measured:
[1] = In vitro metabolic stability, rat liver microsomes (Monash); format: in vitro ADME; settings: Monash; for microsomal CLint at 1 µM: read-out: RLM Clint (Monash); for half-life at 1 µM: read-out: RLM t1/2 (Monash)
Method: (§1) The metabolic stability assay was performed by incubating each test compound with a suspension of liver microsomes (0.4 mg/mL protein, 1 μM substrate, 37 °C). Microsomes were purchased from XenoTech. The metabolic reaction was initiated by the addition of an NADPH-regenerating system and quenched at various time points over a 60 min incubation by the addition of acetonitrile containing metolazone as an internal standard. Control samples (containing no NADPH) were included (quenched at 2, 30, and 60 min) to monitor for potential degradation in the absence of cofactor. […]
(§2) d) In Vitro Metabolic Stability
(§3) The metabolic stability assay was performed by incubating each test compound with a suspension of liver
(§4) microsomes (0.4 mg/mL, 37°C). The metabolic reaction was initiated by the addition of an NADPH-regenerating
(§5) system and quenched at various time points over a 60 minute incubation by the addition of acetonitrile containing
(§6) metolazone as internal standard. Control samples (containing no NADPH) were included (quenched at 2, 30 and 60
(§7) minutes) to monitor for potential degradation in the absence of cofactor.
(§8) The human liver microsomes used in this experiment were supplied by XenoTech, lot # 1710084.The rat liver
(§9) microsomes used in this experiment were supplied by XenoTech, lot # 1610290. Microsomal incubations were
(§10) performed at a substrate concentration of 1 µM.
(§11) Data analysis and interpretation:
(§12) Substrate depletion as a function of time was analysed as described by Obach (1999) Drug Metab. Dispos., 27:1350-
(§13) 1359. Intrinsic clearance (CLint) values were classified at the limits of low and high clearance bands based on a
(§14) rearrangement of the well stirred model of hepatic elimination. It should be noted that the potential impact of
(§15) compound binding (either in microsomes or in blood) on the relationship between in vitro intrinsic clearance and
(§16) hepatic clearance in vivo has not been accounted for in these studies.
(§17) In Vitro Intrinsic Clearance
(§18) Species (µL/min/mg protein)
(§19) Low Clearance High Clearance
(§20) Experimental results are tabulated on the following page(s).
(§21) (1 picture or pasted object on this page, not shown here)

[2] = Mouse liver microsome (MLM) metabolic stability (UNC); format: in vitro ADME
Description: Supplement id3c00286_si_002.xlsx, sheet "Series 2 Data" | column: MLM Clint (mL/min/kg) (UNC); MLM t1/2 (min) (UNC); MLM E (UNC)

[3] = tested on: Staphylococcus aureus ATCC 43300 MRSA; assay: CO-ADD antibacterial assay (growth inhibition, MIC), MRSA; format: cell-based; settings: read-out: MRSA MIC (CO-ADD)
Method: Hit Confirmation of active compounds by whole cell growth inhibition assays was conducted as an 8-point dose response to determine the Minimum Inhibitory Concentration (MIC), in duplicate (n=2). The inhibition of growth is measured against those microorganisms that […]
Included in the Hit Confirmation were 5 bacteria: Escherichia coli, Klebsiella pneumoniae, Acinetobacter baumannii, Pseudomonas aeruginosa and Staphylococcus aureus, and 2 fungi Candida albicans and Cryptococcus neoformans. […]
Assay Parameters Bacteria Fungi HEK293 Haemolysis […]
Duplicate (n=2) Duplicate (n=2) Duplicate (n=2) Duplicate (n=2)
QC Control MIC: Control MIC: Control CC50: Control HC10:
Non-Binding Non-Binding TC, 384-well Polypropylene
Plates Surface (NBS), Surface (NBS), black wall/clear 384-well and 384-well plate 384-well plate bottom polystyrene 384-
Cation-adjusted Yeast Nitrogen DMEM
Media Mueller Hinton Base supplemented 0.9% NaCl
Hit Confirmation outcomes are detailed in individual Project reports, personalised for each Project Submission for each CO-ADD user.
Please see your data sheet with file extension P0XXX_HC_data.xlsx, for example CO-ADD Project P0100, P0100_HC_data.xlsx
Study: HC_data ID: HC-Procedures & Materials
Date: Last updated June 2018 Confidential Page 3 of 11
as §21
Samples were provided by the collaborator and stored frozen at -20 °C. Samples were prepared in DMSO and water to a final testing concentration of 32 µg/mL or 20 µM (unless otherwise indicated in the data sheet) and serially diluted 1:2 fold for 8 times. Each sample concentration was prepared in 384-well plates, non-binding surface plate (NBS; Corning 3640) for each bacterial/fungal strain, tissue-culture treated (TC-treated; Corning 3712/3764) black for mammalian cell types and polypropylene 384-well (PP; Corning 3657) for haemolysis assays, all in duplicate (n=2), and keeping the final DMSO concentration to a maximum of 0.5%. All the sample preparation was done using liquid handling robots. […]
detailed in the Data sheet for the individual Project.
All bacteria were cultured in Cation-adjusted Mueller Hinton broth (CAMHB) at 37 °C overnight. A sample of each culture was then diluted 40-fold in fresh broth and incubated at 37 °C for 1.5-3 h. The resultant mid-log phase cultures were diluted (CFU/mL measured by OD600), then added to each well of the compound containing plates, giving a cell density of 5×10^5 CFU/mL and a total volume of 50 µL. All the plates were covered and incubated at 37 °C for 18 h without shaking.
Inhibition of bacterial growth was determined measuring absorbance at 600 nm (OD600), using a Tecan M1000 Pro monochromator plate reader. The percentage of growth inhibition was calculated for each well, using the negative control (media only) and positive control (bacteria without inhibitors) on the same plate as references.
The percentage of growth inhibition was calculated for each well, using the negative control (media only) and positive control (bacteria without inhibitors) on the same plate. The MIC […]
by an inhibition ≥ 80%. In addition, the maximal percentage of growth inhibition is reported as DMax, indicating any compounds with partial activity.
Date: Last updated June 2018 Confidential Page 5 of 11
Material Code Brand/Supplier Cat No.
Compound preparation plate, Polypropylene PP Corning 3364
Assay Plates – Antimicrobial
Non-binding surface NBS 384w Corning 3640
Assay Plates – Cytotoxicity
Tissue culture treated Black/Clear bottom 384w Corning 3712
Assay Plates - Haemolysis PP-Haem Corning 3657 […]
Growth media - bacteria CAMHB Bacto Laboratories 212322
Culture agar - fungi YPD Becton Dickinson 242720
Growth media - fungi YNB Becton Dickinson 233520
Resazurin Sigma-Aldrich R7017
Dulbecco's Modified Eagle Medium DMEM Life Technologies 11995-073
Foetal Bovine Serum FBS Bovogen FFBS-500
0.9% NaCl Saline Baxter AHF7124
Sample Name Sample ID MW Conc. Solvent Source […]

[4] = In vitro metabolic stability, human liver microsomes (Monash); format: in vitro ADME; settings: Monash; for microsomal CLint at 1 µM: read-out: HLM Clint (Monash); for half-life at 1 µM: read-out: HLM t1/2 (Monash)
Method: as §1, §2, §3, §4, §5, §6, §7, §8, §9, §10, §11, §12, §13, §14, §15, §16, §17, §18, §19, §20, §21

[5] = Kinetic solubility estimation using nephelometry (Monash); format: physicochemical; settings: kinetic from dmso stock
Method: Compound in DMSO was spiked into either pH 6.5 phosphate buffer or 0.01 M HCl (approximately pH 2.0) with the final DMSO concentration being 1%. […]
b) Kinetic Solubility Estimation using Nephelometry (SolpH)
Compound in DMSO was spiked into either pH 6.5 phosphate buffer or 0.01 M HCl (approx pH 2.0) with the final
DMSO concentration being 1%. After 30 minutes had elapsed, samples were then analysed via Nephelometry to
determine a solubility range. See Bevan and Lloyd (2000) Anal Chem, 72:1781-1787. […]
(§22) In Vitro Intrinsic Clearance […]
as §20, §21

[6] = Distribution coefficient estimation using chromatography, gLogD (Monash); format: physicochemical; settings: gradient HPLC retention against standard compounds, pH 7.4
Description: Partition coefficient values (LogD) of the test compounds were estimated at pH 7.4 by the correlation of their chromatographic retention properties against the characteristics of a series of standard compounds with known partition coefficient values. The method employed is a gradient HPLC-based derivation of the method developed by Lombardo.[42] […]
c) Distribution Coefficient Estimation using Chromatography (gLogDpH)
Partition coefficient values (LogD) of the test compounds were estimated at pH 7.4 by correlation of their
chromatographic retention properties against the characteristics of a series of standard compounds with known
partition coefficient values. […]
as §22, §20, §21

[7] = tested on: Enterococcus faecalis ATCC 51299 (vanA-positive; vancomycin-resistant); assay: In vitro antibacterial activity, MIC (UCL), VRE; format: cell-based; settings: read-out: VRE MIC (UCL)
Method in brief: (§23)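 Broth microdilution MIC in isosensitest broth; inoculum from overnight tryptone soya agar culture suspended in PBS to A600 0.1 (~1 × 10^8 CFU/mL), then diluted 1:100. Compounds tested as 2-fold series from 32 to 0.03 μg/mL, DMSO at most 2%; vancomycin as quality control.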

[8] = Human plasma protein binding (PPB); format: in vitro ADME; settings: human plasma, NEU
[9] = tested on: MRC-5SV2 (human lung fibroblast cell line); assay: Toxicity against MRC-5SV2; format: cell-based; settings: MRC5 cells
Method: (§24) ADME and toxicity for compounds were measured according to procedures outlined in the manuscript submitted in parallel to this one;2 other procedures were used for those compounds analysed by Monash University (in vitro ADME) or UCL (toxicity), both described in the main

[10] = tested on: PMM (primary mouse macrophages); assay: Toxicity against PMM; format: cell-based; settings: PMM
Method: as §24

Aqueous solubility = format: physicochemical; settings: thermodynamic from solid; NEU; read-out: Aqueous Solubility (NEU)
U2OS = assay: Toxicity against U2OS; format: cell-based; settings: U2OS cells
Description: Supplement id3c00286_si_002.xlsx, sheet "Series 2 Data" | column: U2OS TC50 (uM)

THP1 = assay: Toxicity against THP1; format: cell-based; settings: THP1 cells
Description: Supplement id3c00286_si_002.xlsx, sheet "Series 2 Data" | column: THP1 TC50 (uM)

[11] = Human liver microsome intrinsic clearance; format: in vitro ADME; settings: human liver microsomes, NEU; read-out: HLM CLint (NEU)
[12] = tested on: Staphylococcus aureus NCTC 13373 (mecA-positive; methicillin-resistant); assay: In vitro antibacterial activity, MIC (UCL School of Pharmacy assay), MRSA; format: cell-based; settings: Staphylococcus aureus, UCL; read-out: MRSA MIC (UCL)
Method in brief: as §23

[13] = Rat hepatocyte intrinsic clearance; format: in vitro ADME; settings: rat hepatocytes, NEU; read-out: Rat Hep CLint (NEU)
[14] = 0.01 M HCl, simulated gastric fluid, pH 2.0, read-out: Sol (pH 2.0) (Monash)
[15] = pH 6.5 phosphate buffer, pH 6.5, aqueous buffer, read-out: Sol (pH 6.5) (Monash)

Structure (SMILES)	microsomal CLint at 1 µM [1] [µL/min/mg]	half-life at 1 µM [1] [min]	MIC [3] [µg/mL]	microsomal CLint at 1 µM [4] [µL/min/mg]	half-life at 1 µM [4] [min]	solubility kinetic at 30 min [5, 14] [µg/mL]	solubility kinetic at 30 min [5, 15] [µg/mL]	chromatographic logD [6]	also measured
c1ccc(-c2nc3n(c2-c2ccc4c(c2)OCO4)CCS3)nc1 [OSA_000813]	74	23	32 (≈ 99 µM)	37	47	25 to 50 (≈ 77.3 to 155 µM)	12.5 to 25 (≈ 38.7 to 77.3 µM)	1.6	MLM E (UNC) ([2]; mouse liver microsomes): 0.873; CLint scaled ([2]; mouse, liver microsomes): 619 mL/min/kg; half-life ([2]; mouse, liver microsomes, read-out: MLM t1/2 (UNC)): 9.08 min
c1ccc(-c2nc3ccccn3c2-c2ccc3c(c2)OCO3)nc1 [OSA_000814]	99	18	32 (≈ 101 µM)	47	37	> 100	25 to 50 (≈ 79.3 to 159 µM)	1.8	
COc1ccn2c(Nc3ccccc3F)c(-c3cnn(C)c3)nc2c1 [OSA_000855]									MIC [7]: > 32 µg/mL; Human PPB (NEU) [8]: Low recovery,Unstable in plasma; MRC5 TC50 [9]: 64 µM; PMM TC50 [10]: 64 µM; solubility (Aqueous solubility): 22 µM (≈ 7.42 µg/mL); U2OS TC50 (U2OS): 50 µM; THP1 TC50 (THP1): 50 µM; microsomal CLint [11]: < 3 µL/min/mg; MIC [12]: > 32 µg/mL; hepatocyte CLint [13]: 82.3 µL/min/1e6 cells
